Source: patent US20260209789A1, “TRIGGER-INDUCIBLE MRNA CIRCULARIZATION” (WESTLAKE UNIVERSITY, priority 2022, published 2026)

Columns and labels:
[1] = Treatment of type-1 diabetes by oral grazoprevir-inducible insulin expression; conditions: T1D mice with grazoprevir-inducible insulin gene therapy, oral 3 mg/kg
[2] = Grazoprevir-inducible SEAP production in mice (hydrodynamic tail vein injection); conditions: C57BL/6 mice, hydrodynamically injected gene switch, 3 daily administrations, 24 h after first
[3] = tested on: MAPK signaling (phosphorylated ERK2); assay: Phosphorylation-dependent STIF reconstitution sensor (pE59/ERK2), NanoLuc/FLuc; type: cell-based; conditions: 100 ng/mL recombinant human EGF, 48 h
Description: FIG. 11. Genetically encoded signalling-specific sensors employing phosphorylation-dependent STIF reconstitution. (A) L7Ae-based STIFs. […] For (−) conditions, pcDNA3.1 (+) was transfected instead of expression vectors. Data presented are mean±SD of relative luciferase activity (NanoLuc/FLuc), n=3 individual experiments. (B) MCP-based STIFs. […] For (−) conditions, pcDNA3.1 (+) was transfected instead of expression vectors. Data presented are mean±SD of relative luciferase activity (NanoLuc/FLuc), n=3 individual experiments.
Translational regulation by trigger-inducible STIF systems can also be engineered in various other ways. […] In this configuration, HEK-293 cells were transfected with an expression vector for SEAP-mRNA containing 16 tandem MS2-box repeats in the 3′-UTR (SEQ-ID NO: 138) and constitutive expression vectors for MCP-LaM8AK47 (SEQ-ID NO: 241) and mCherry-NSP3 (SEQ-ID NO: 250). […] In the future, engineering of similar sensors for other signalling pathways can be readily achieved by exchanging the pE59 (SEQ-ID NO: 110) and ERK2 (SEQ-ID NO: 85) domains by other signalling specific PPI systems. […]

[4] = tested on: GNCR: NS3a system; assay: Grazoprevir-inducible SEAP translation in HEK-293 cells (fold-change, dose-dependence, kinetics vs transcriptional switch); conditions: three tandem GNCR and NS3a repeats
Description: Optimization of an L7Ae-based grazoprevir-inducible gene switch. (A) Translational regulation by grazoprevir-dependent STIF association. […] (B) Translational regulation by different grazoprevir-dependent NSP3-fusion proteins. […] (C) Translational regulation by different grazoprevir-dependent L7Ae-fusion proteins.
Optimized L7Ae- and MCP-based grazoprevir-inducible gene switch in mammalian cells. (A) Optimized grazoprevir-inducible regulation of SEAP translation. […] (B, C) Dose-dependent grazoprevir-inducible SEAP expression.
Comparative analysis of gene switches based on STIF-based translation and state-of-the-art transcription-centered designs. (A) Kinetics of grazoprevir-inducible SEAP expression. […] (B) Endpoint performance of grazoprevir-induced translational and transcriptional gene switch switches.

[5] = tested on: STIF-specific target gene mRNA; assay: STIF-mediated translation of reporter mRNA (SEAP, FLuc, EGFP) in HEK-293 cells; type: cell-based, human; conditions: 48 h; for induction folds between basal and activated states (SEAP): HHR-mediated poly (A)-removal, 24 aptamer repeats
Description: FIG. 2. Design and validation of different STIF constructs consisting of RNA-binding protein (RBPs) fused to different eIF4F-binding moieties (eIFBP). (A) Synthetic translation initiation factors (STIFs)-mediated translation of L7Ae-specific SEAP-mRNA with shRNA-216-cleavable poly (A). […] (B) STIF-mediated translation of MCP-specific SEAP-mRNA with shRNA-216-cleavable poly (A). […] (C) Correlation between C/D-box-based aptamer region size and STIF-mediated SEAP expression. HEK-293 cells were co-transfected with SEAP expression vectors containing different tandem repeats of the L7Ae-specific C/D-box aptamer ((C/D-box)8, pSL31; (C/D-box)12, pSL81; (C/D-box)16, pSL80; (C/D-box)24, pSL88), an shRNA-216 expression vector (pSL4) and an expression vector for either PABP-L7Ae (ON; pLZ16) or a Coh2-L7Ae protein incapable of binding eIF4F (OFF; pSL44). […] Data presented are mean±SD, n=4 individual experiments. (D) Correlation between MS2-box-based aptamer region size and STIF-mediated SEAP expression. HEK-293 cells were transfected with SEAP expression vectors containing different tandem repeats of the MCP-specific MS2-box aptamer ((MS2-box)8, pSL515; (MS2-box)12, pSL1284; (MS2-box)16, pSL516; (MS2-box)24, pSL468) and constitutive expression vectors for either MCP-NSP3 (ON; pSL95) or an MCP-Coh2 protein incapable of binding eIF4F (OFF; pSL674). […] Data presented are mean±SD, n=4 individual experiments.
FIG. 5. Translational regulation of SEAP-, Firefly Luciferase and EGFP-mRNA with self-cleavable poly (A). (A) STIF-mediated translation of L7Ae-specific SEAP-mRNA with HHR-cleavable poly (A). […] (B) STIF-mediated translation of MCP-specific SEAP-mRNA with HHR-cleavable poly (A). […] (C, D) STIF-mediated regulation at the protein level of gene expression.

[6] = biological target: T1, (DocS)3 (Acetivibrio thermocellus, UniProt A3DH67); assay: Coh2/DocS-based STIF protein sensor for cytosolic (DocS)3; conditions: different amounts of pSL244, 48 h
T1 sequence (A3DH67 with tags, fused parts or gaps): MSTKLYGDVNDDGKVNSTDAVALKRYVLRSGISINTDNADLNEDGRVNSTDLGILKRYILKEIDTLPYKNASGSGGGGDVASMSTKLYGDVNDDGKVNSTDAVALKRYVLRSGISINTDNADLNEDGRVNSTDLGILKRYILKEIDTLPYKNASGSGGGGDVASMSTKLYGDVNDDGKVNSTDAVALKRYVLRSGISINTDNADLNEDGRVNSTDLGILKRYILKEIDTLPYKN

[7] = tested on: STIF-specific target gene mRNA; assay: Translational regulation by constitutive bipartite STIF reconstitution (SEAP, NanoLuc) in HEK-293 cells; type: cell-based, human; conditions: 48 h
Description: FIG. 8. Translational regulation by spontaneous assembly of bipartite STIFs. (A) Translational regulation through constitutive STIF reconstitution. […] Transfection of pcDNA3.1 (+) instead of NSP3-fusion proteins was used as a negative control. […] (B) Compatibility of STIF-mediated translational regulation with split-complementation approaches. […] For (−) conditions, pcDNA3.1 (+) was transfected instead of expression vectors.
FIG. 9. Translational regulation through constitutive Coh2/DocS-mediated STIF reconstitution. (A) Site-specific translational activation by eIFBP overexpression. HEK-293 cells were (co-) transfected with an expression vector for SEAP-mRNA containing 24 tandem C/D-box-(left panel, pSL355) or MS2-box repeats in the 3′-UTR (right panel, pSL468), constitutive expression vectors for L7Ae (left) or MCP (right) fused to Coh2 (L7Ae-Coh2, pSL83; MCP-Coh2, pSL674) or EGFP (L7Ae-EGFP, pSL1078; MCP-EGFP, pSL435) and constitutive expression vectors for various chimeric Coh2-specific DocS-containing eIFBP fusions (PABP-DocS, pSL47; DocS-eIF4G, pSL87; DocS-eIF4E, pLZ312; DocS-NSP3, pSL66; DocS-VPg, pLZ311). Transfection of pcDNA3.1 (+) instead of DocS- or MCP-expressing vectors was used as a negative control. […] SEAP (left) and NanoLuc levels in culture supernatants (right) were quantified at 48 h post-transfection. […]

[8] = 20 h after first administration

Molecule: C=C[C@@H]1C[C@]1(NC(=O)[C@@H]1C[C@@H]2CN1C(=O)[C@H](C(C)(C)C)NC(=O)O[C@@H]1C[C@H]1CCCCCc1nc3ccc(OC)cc3nc1O2)C(=O)NS(=O)(=O)C1CC1.O [grazoprevir]
- correction of hyperglycemia (fasting glycemia) [1, 8]: almost complete correction
- correction of insulin deficiency (blood insulin levels) [1, 8]: almost complete correction
- correction of glucose intolerance (intraperitoneal GTT) ([1]; 24 h after first administration): almost complete correction
- oral dose sufficient to fully activate the system (SEAP levels in the bloodstream) [2]: 3 mg/kg

Molecule: EGF: Animal-free recombinant human EGF (NSDSECPLSHDGYCLHDGVCMYIEALDKYACNCVVGYIGERCQYRDLKWWELR; Epidermal growth factor; UniProt P01133 971-1023, looked up)
- reporter levels (NanoLuc/FLuc) vs MAPK activity [3]: increases in reporter levels correlate with increased MAPK activity

Molecule: L7Ae-(NS3a)3: trigger-inducible STIF regulator
- regulation performance (fold-change, dose-dependence, activation kinetics) [4]: best regulation performance

Molecule: L7Ae-NSP3: STIF fusion protein
- induction folds between basal and activated states (SEAP) [5]: highest induction folds

Molecule: MCP-(Coh2)3: bipartite STIF regulator
- detection of cytosolic (DocS)3 (SEAP) [6]: in a dose-dependent manner

Molecule: MCP-(NS3a)3: trigger-inducible STIF regulator
- regulation performance (fold-change, dose-dependence, activation kinetics) [4]: best regulation performance

Molecule: MCP-Coh2: bipartite STIF regulator
- target gene translation by spontaneous STIF assembly (SEAP) [7]: modular and effective translational regulation

Molecule: MCP-NSP3: STIF fusion protein
- induction folds between basal and activated states (SEAP) [5]: highest induction folds
- regulation of other reporter genes (FLuc, EGFP) ([5]; MCP-specific poly (A)-surrogate): could also regulate a variety of other reporter genes
